Values of other authors in patent publication US8529952B2 (Ethypharm, priority 1999, dated 2013).

CC(C)(Oc1ccc(C(=O)c2ccc(Cl)cc2)cc1)C(=O)O [fenofibric acid]
mean concentration in the plasma (dose of 300 mg of fenofibrate per day): ~15 micrograms/ml
time to maximum concentration in the plasma after ingestion (on average): five
half-life for elimination from the plasma (plasma): ~20 h
